Holding throughout (type): in vivo
Series [1] has as its system Avena fatua (AVEFA). In words: Glasshouse assay for herbicidal activity (pre- and post-emergence), percentage phytotoxicity. Particulars: Avena fatua. The method, boiled down: (§1)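 Visually rated damage, 0–100%. PRE spray 1 d after sowing, scored 20 DAA; POST spray ~12 d, scored 15 DAA. Glasshouse at 65% humidity, 16 h day.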
Series [2] concerns Echinochloa crus-galli (ECHCG). Described as above. The note with it: Echinochloa crus-galli. The method, boiled down:
as §1

Series [3] deals with Lolium perenne (LOLPE). Described as above. The note with it: Lolium perenne. The essentials: as §1
Series [4] relates to Alopecurus myosuroides (ALOMY). The description is as above. Particulars: Alopecurus myosuroides. The method, boiled down:
as §1

Series [5] relates to Winter Wheat variety 'Hereward'. In words: Glasshouse assay for crop safety, post-emergence, +/- safener cloquintocet-mexyl (CQC), percentage phytotoxicity. Particulars: 250 g/ha, evaluated after 13 days, 100=total damage, 0=no damage; for Post-emergence Crop Selectivity, percentage phytotoxicity, Wheat +CQC: with safener cloquintocet-mexyl (CQC) seed treatment 0.5 g/kg seed; for Post-emergence Crop Selectivity, percentage phytotoxicity, Wheat − CQC: without safener cloquintocet-mexyl (CQC). The text has this:
Test—Glasshouse Assay for Crop Safety.
Seeds of the Winter Wheat variety ‘Hereward’ were seed treated with a wettable powder formulation of the cereal herbicide safener, cloquintocet mexyl, at a rate of 0.5 grams per kilogram of dry seed prior to the initiation of glasshouse testing. Three seeds were sown per 1.5 inch plastic pot into a sandy loam soil at a depth of 1 cm, 8 days prior to application of the test compounds and was watered and grown under controlled conditions in a glasshouse (at 24/16° C., day/night; 14 hours light; 65% humidity). The plants were sprayed Post-emergence with an aqueous spray solution derived from the formulation of the technical active ingredient in acetone/water (50:50) solution containing 0.5% Tween 20 (polyoxyethelyene sorbitan monolaurate, CAS RN 9005-64-5).
The test plants were then grown in a glasshouse under controlled conditions (at 24/16° C., day/night; 14 hours light; 65% humidity) and watered twice daily. After 13 days for pre and post-emergence, the test was evaluated (100=total damage to plant; 0=no damage to plant).

Setting [6] is: post-emergence, 360 h, Rate 250 g/ha, post-emergence, assessed visually 15 DAA, 100%=total damage, 0%=no damage, read-out: Post-emergence herbicidal activity (percentage phytotoxicity) AVEFA POST.
Where [7] appears, read: pre-emergence, 480 h, Rate 250 g/ha, pre-emergence, assessed visually 20 DAA, 100%=total damage, 0%=no damage, read-out: Pre-emergence herbicidal activity (percentage phytotoxicity) AVEFA PRE.
The mark [8] stands for this setting: post-emergence, 360 h, Rate 250 g/ha, post-emergence, assessed visually 15 DAA, 100%=total damage, 0%=no damage, read-out: Post-emergence herbicidal activity (percentage phytotoxicity) ECHCG POST.
[9] abbreviates: pre-emergence, 480 h, Rate 250 g/ha, pre-emergence, assessed visually 20 DAA, 100%=total damage, 0%=no damage, read-out: Pre-emergence herbicidal activity (percentage phytotoxicity) ECHCG PRE.
Setting [10] is: post-emergence, 360 h, Rate 250 g/ha, post-emergence, assessed visually 15 DAA, 100%=total damage, 0%=no damage, read-out: Post-emergence herbicidal activity (percentage phytotoxicity) LOLPE POST.
The mark [11] stands for this setting: pre-emergence, 480 h, Rate 250 g/ha, pre-emergence, assessed visually 20 DAA, 100%=total damage, 0%=no damage, read-out: Pre-emergence herbicidal activity (percentage phytotoxicity) LOLPE PRE.
The mark [12] stands for this setting: post-emergence, 360 h, Rate 250 g/ha, post-emergence, assessed visually 15 DAA, 100%=total damage, 0%=no damage, read-out: Post-emergence herbicidal activity (percentage phytotoxicity) ALOMY POST.
Setting [13] is: pre-emergence, 480 h, Rate 250 g/ha, pre-emergence, assessed visually 20 DAA, 100%=total damage, 0%=no damage, read-out: Pre-emergence herbicidal activity (percentage phytotoxicity) ALOMY PRE.

Structures are written as SMILES. Like-named read-outs stand apart in the source and are kept apart here.

In the case of `COCC(C)NC(=O)CC1CC(=O)C(c2c(C)cc(C)cc2C)C1=O` (centres unmarked) [Compound A16], the pest or weed control at 250 g/ha in series [1] (setting [6]) is 90%; in series [1] (setting [7]), 90%; in series [2] (setting [8]) it was 100%; in series [2] (setting [9]) it was 100%; in series [3] (setting [10]) it was 80%; in series [3] (setting [11]), 80%. Moreover, the pest or weed control at 250 g/ha in series [4] (setting [12]) and in series [4] (setting [13]) was 90% in each case. In series [5], the “Post-emergence Crop Selectivity, percentage phytotoxicity, Wheat +CQC” value is recorded as 30%. The “Post-emergence Crop Selectivity, percentage phytotoxicity, Wheat − CQC” value in series [5] was 80%.

Turning to `Cc1cc(-c2ccc(F)cn2)cc(C)c1C1C(=O)CC(CC(=O)NC(C)(C)C)C1=O` (centres unmarked) [Compound A80], the pest or weed control at 250 g/ha is 100% in series [1] (setting [6]); 90% in series [1] (setting [7]); 100% in series [2] (setting [8]); 100% in series [2] (setting [9]); 100% in series [3] (setting [10]); 100% in series [3] (setting [11]). Moreover, the pest or weed control at 250 g/ha in series [4] (setting [12]) and in series [4] (setting [13]) was 100% each time. For the same molecule, the “Post-emergence Crop Selectivity, percentage phytotoxicity, Wheat +CQC” value in series [5] came to 20%. The “Post-emergence Crop Selectivity, percentage phytotoxicity, Wheat − CQC” value in series [5] is given as 70%.

As to `Cc1cc(C)c(C2C(=O)CC(CC(=O)NCC(C)C)C2=O)c(C)c1` (centres unmarked) [Compound A5], the pest or weed control at 250 g/ha in series [1] (setting [6]) stood at 80%; in series [1] (setting [7]) it was 70%; in series [2] (setting [8]) it was 80%; in series [2] (setting [9]) it was 100%; in series [3] (setting [10]) it was 80%; in series [3] (setting [11]) it was 100%. For the same molecule, the pest or weed control at 250 g/ha is 90% in series [4] (setting [12]) and 100% in series [4] (setting [13]). Also, the “Post-emergence Crop Selectivity, percentage phytotoxicity, Wheat +CQC” value in series [5] is on record as 10%. For the same molecule, the “Post-emergence Crop Selectivity, percentage phytotoxicity, Wheat − CQC” value in series [5] was found to be 80%.

As for `Cc1cc(C)c(C2C(=O)CC(CC(=O)NCc3cccs3)C2=O)c(C)c1` (centres unmarked) [Compound A6], the pest or weed control at 250 g/ha is 90% in series [1] (setting [6]); 60% in series [1] (setting [7]); 90% in series [2] (setting [8]); 100% in series [2] (setting [9]); 90% in series [3] (setting [10]); 100% in series [3] (setting [11]). Besides, the pest or weed control at 250 g/ha in series [4] (setting [12]) and in series [4] (setting [13]) was 90% throughout. Also, in series [5], the “Post-emergence Crop Selectivity, percentage phytotoxicity, Wheat +CQC” value amounted to 10%. In series [5], the “Post-emergence Crop Selectivity, percentage phytotoxicity, Wheat − CQC” value was 70%.

On to `Cc1cc(C)c(C2C(=O)CC(CC(=O)NC3CCCC3)C2=O)c(C)c1` (centres unmarked) [Compound A21], for which the pest or weed control at 250 g/ha is 70% in series [1] (setting [6]); 50% in series [1] (setting [7]); 80% in series [2] (setting [8]); 80% in series [2] (setting [9]); 80% in series [3] (setting [10]); 80% in series [3] (setting [11]). Besides, the results for the pest or weed control at 250 g/ha in series [4] (setting [12]) and in series [4] (setting [13]) were 80% and 70%, respectively. Moreover, in series [5], the “Post-emergence Crop Selectivity, percentage phytotoxicity, Wheat +CQC” value was found to be 0%. For the same molecule, the “Post-emergence Crop Selectivity, percentage phytotoxicity, Wheat − CQC” value in series [5] amounted to 60%.

Consider `Cc1cc(-c2ncc(F)cn2)cc(C)c1C1C(=O)CC(CC(=O)NCc2cccc(C(F)(F)F)c2)C1=O` (centres unmarked) [Compound A145], for which the pest or weed control at 250 g/ha in series [1] (setting [6]) worked out at 100%; in series [1] (setting [7]), 100%; in series [2] (setting [8]), 100%; in series [2] (setting [9]), 100%; in series [3] (setting [10]), 90%; in series [3] (setting [11]), 100%. The pest or weed control at 250 g/ha in series [4] (setting [12]) and in series [4] (setting [13]) was 100% throughout. Also, the “Post-emergence Crop Selectivity, percentage phytotoxicity, Wheat +CQC” value in series [5] is reported as 30%. The “Post-emergence Crop Selectivity, percentage phytotoxicity, Wheat − CQC” value in series [5] is recorded as 60%.

Consider `Cc1cc(C)c(C2C(=O)CC(CC(=O)NCC(C)(C)C)C2=O)c(C)c1` (centres unmarked) [Compound A14], for which the pest or weed control at 250 g/ha in series [1] (setting [6]) was 70%; in series [1] (setting [7]) it was 70%; in series [2] (setting [8]), 80%; in series [2] (setting [9]), 100%; in series [3] (setting [10]), 80%; in series [3] (setting [11]) it was 80%. The figures for the pest or weed control at 250 g/ha in series [4] (setting [12]) and in series [4] (setting [13]) were 80% and 90%, respectively. Further, in series [5], the “Post-emergence Crop Selectivity, percentage phytotoxicity, Wheat +CQC” value is 10%. The “Post-emergence Crop Selectivity, percentage phytotoxicity, Wheat − CQC” value in series [5] was 60%.

In the case of `Cc1cc(C)c(C2C(=O)CC(CC(=O)NC3(c4ccccn4)CC3)C2=O)c(C)c1` (centres unmarked) [Compound A18], the pest or weed control at 250 g/ha in series [1] (setting [6]) is 50%; in series [1] (setting [7]), 20%; in series [2] (setting [8]), 70%; in series [2] (setting [9]), 60%; in series [3] (setting [10]), 80%; in series [3] (setting [11]) it was 60%. In addition, the pest or weed control at 250 g/ha in series [4] (setting [12]) came to 70%; in series [4] (setting [13]), 60%. The “Post-emergence Crop Selectivity, percentage phytotoxicity, Wheat +CQC” value in series [5] came to 20%. Besides, the “Post-emergence Crop Selectivity, percentage phytotoxicity, Wheat − CQC” value in series [5] stood at 70%.

`Cc1cc(-n2cc(Cl)cn2)cc(C)c1C1C(=O)CC(CC(=O)NC2CCCC2)C1=O` (centres unmarked) [Compound A70]: the pest or weed control at 250 g/ha was found to be 70% in series [1] (setting [6]); 70% in series [1] (setting [7]); 90% in series [2] (setting [8]); 100% in series [2] (setting [9]); 70% in series [3] (setting [10]); 70% in series [3] (setting [11]). Besides, the pest or weed control at 250 g/ha in series [4] (setting [12]) amounted to 90%; in series [4] (setting [13]) it was 70%. In addition, the “Post-emergence Crop Selectivity, percentage phytotoxicity, Wheat +CQC” value in series [5] is recorded as 20%. In series [5], the “Post-emergence Crop Selectivity, percentage phytotoxicity, Wheat − CQC” value came to 70%.

On to `Cc1cc(-c2ncc(F)cn2)cc(C)c1C1C(=O)CC(CC(=O)NC(C)C)C1=O` (centres unmarked) [Compound B275], for which the pest or weed control at 250 g/ha in series [1] (post-emergence, 360 h, POST-emergence, rate 250 g/ha, visual score 15 DAA (100%=total damage, 0%=no damage), read-out: Post-emergence herbicidal activity (percentage phytotoxicity) AVEFA POST) is 100%; in series [1] (pre-emergence, 480 h, PRE-emergence, rate 250 g/ha, visual score 20 DAA (100%=total damage, 0%=no damage), read-out: Pre-emergence herbicidal activity (percentage phytotoxicity) AVEFA PRE), 100%; in series [2] (post-emergence, 360 h, POST-emergence, rate 250 g/ha, visual score 15 DAA (100%=total damage, 0%=no damage), read-out: Post-emergence herbicidal activity (percentage phytotoxicity) ECHCG POST), 100%; in series [2] (pre-emergence, 480 h, PRE-emergence, rate 250 g/ha, visual score 20 DAA (100%=total damage, 0%=no damage), read-out: Pre-emergence herbicidal activity (percentage phytotoxicity) ECHCG PRE), 100%; in series [3] (post-emergence, 360 h, POST-emergence, rate 250 g/ha, visual score 15 DAA (100%=total damage, 0%=no damage), read-out: Post-emergence herbicidal activity (percentage phytotoxicity) LOLPE POST) it was 100%; in series [3] (pre-emergence, 480 h, PRE-emergence, rate 250 g/ha, visual score 20 DAA (100%=total damage, 0%=no damage), read-out: Pre-emergence herbicidal activity (percentage phytotoxicity) LOLPE PRE) it was 100%. Moreover, the pest or weed control at 250 g/ha was 100% in series [4] (post-emergence, 360 h, POST-emergence, rate 250 g/ha, visual score 15 DAA (100%=total damage, 0%=no damage), read-out: Post-emergence herbicidal activity (percentage phytotoxicity) ALOMY POST) and 100% in series [4] (pre-emergence, 480 h, PRE-emergence, rate 250 g/ha, visual score 20 DAA (100%=total damage, 0%=no damage), read-out: Pre-emergence herbicidal activity (percentage phytotoxicity) ALOMY PRE).

The values are drawn from patent publication US10206394B2, “Herbicidal compounds” (Syngenta Participations AG, priority 2014, dated 2019).
